Results from patent US12139492B2 (Endotarget Inc., priority 2021, dated 2024).

Assays:
Mino cells = test: Antiproliferative effect, MTS cell viability assay, Mino cells; assay type: cell-based; conditions: Homo sapiens, MINO, Mino mantle cell lymphoma cells; read-out: IC50 (anti-proliferation) Mino cells
In short: (§1)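 Mino and JeKo-1 mantle B-cell lymphoma lines were exposed to compound at 0, 0.001, 0.01, 0.1, 1 and 10 μM for 72 h. Viability was read by MTS reduction to formazan, measured as absorbance at 490 nm.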

JeKo-1 cells = test: Antiproliferative effect, MTS cell viability assay, JeKo-1 cells; assay type: cell-based; conditions: Homo sapiens; JeKo-1 mantle cell lymphoma cells; read-out: IC50 (anti-proliferation) JeKO-1 cells
In short: as §1

BTK = BTK (Homo sapiens, UniProt Q06187); test: Degradation of BTK protein in Namalwa cells (Western blot; DC50, Dmax); conditions: for DC50: read-out: DC50 (BTK degradation), concentration giving 50% reduction of BTK expression level, cell line not given; for Dmax: read-out: Dmax (BTK degradation)
BTK, sequence (Q06187 whole entry): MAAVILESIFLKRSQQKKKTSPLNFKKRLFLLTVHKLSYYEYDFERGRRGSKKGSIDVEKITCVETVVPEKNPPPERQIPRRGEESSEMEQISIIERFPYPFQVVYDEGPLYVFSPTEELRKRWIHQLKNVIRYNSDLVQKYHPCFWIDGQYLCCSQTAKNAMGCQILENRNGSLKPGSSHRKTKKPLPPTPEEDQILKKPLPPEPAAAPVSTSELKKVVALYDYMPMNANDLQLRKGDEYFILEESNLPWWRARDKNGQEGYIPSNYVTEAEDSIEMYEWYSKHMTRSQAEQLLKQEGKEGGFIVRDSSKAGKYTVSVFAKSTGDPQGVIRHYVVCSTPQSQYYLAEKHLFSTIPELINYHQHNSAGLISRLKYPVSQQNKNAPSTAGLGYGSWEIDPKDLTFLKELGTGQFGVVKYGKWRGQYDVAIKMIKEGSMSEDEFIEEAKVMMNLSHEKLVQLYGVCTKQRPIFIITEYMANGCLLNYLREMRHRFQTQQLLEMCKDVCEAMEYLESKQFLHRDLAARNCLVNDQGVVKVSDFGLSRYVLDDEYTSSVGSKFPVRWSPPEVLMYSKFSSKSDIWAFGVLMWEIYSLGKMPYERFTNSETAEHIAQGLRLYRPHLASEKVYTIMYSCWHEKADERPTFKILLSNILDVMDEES

Nc1ncnc2c1c(-c1ccc(Oc3ccccc3)cc1)nn2[C@@H]1CCCN(C2CCN(C(=O)NC3CCC(=O)NC3=O)CC2)C1 (stereo partly drawn) [Compound 517, (3R)-3-(4-amino-3-(4-phenoxyphenyl)-1H-pyrazolo[3,4-d]pyrimidin-1-yl)-N-(2,6-dioxopiperidin-3-yl)-[1,4′-bipiperidine]-1′-carboxamide]
IC50 (Mino cells): 1000 to 10000 nM | IC50 (JeKo-1 cells): 1000 to 10000 nM | DC50 (BTK): < 10 nM | Dmax (BTK): > 75%

Nc1ncnc2c1c(-c1ccc(Oc3ccccc3)cc1)nn2[C@@H]1CCCN(CC2CCN(C(=O)NC3CCC(=O)NC3=O)CC2)C1 (stereo partly drawn) [Compound 518, 4-(((R)-3-(4-amino-3-(4-phenoxyphenyl)-1H-pyrazolo[3,4-d]pyrimidin-1-yl)piperidin-1-yl)methyl)-N-(2,6-dioxopiperidin-3-yl)piperidine-1-carboxamide]
IC50 (Mino cells): 1000 to 10000 nM | IC50 (JeKo-1 cells): 1000 to 10000 nM | DC50 (BTK): > 50 nM | Dmax (BTK): > 75%

Nc1ncnc2c1c(-c1ccc(Oc3ccccc3)cc1)nn2[C@@H]1CCCN(CCNC(=O)NC2CCC(=O)NC2=O)C1 (stereo partly drawn) [Compound 519, 1-(2-((R)-3-(4-amino-3-(4-phenoxyphenyl)-1H-pyrazolo[3,4-d]pyrimidin-1-yl)piperidin-1-yl)ethyl)-3-(2,6-dioxopiperidin-3-yl)urea]
IC50 (Mino cells): > 10000 nM | IC50 (JeKo-1 cells): 1000 to 10000 nM | DC50 (BTK): 10 to 50 nM | Dmax (BTK): > 75%

Nc1ncnc2c1c(-c1ccc(Oc3ccccc3)cc1)nn2C1CCN(C(=O)NCCN2CCN(c3ccc4c(c3)C(=O)N(C3CCC(=O)NC3=O)C4=O)CC2)CC1 (stereo not shown) [Compound 520, 4-(4-amino-3-(4-phenoxyphenyl)-1H-pyrazolo[3,4-d]pyrimidin-1-yl)-N-(2-(4-(2-(2,6-dioxopiperidin-3-yl)-1,3-dioxoisoindolin-5-yl)piperazin-1-yl)ethyl)piperidine-1-carboxamide]
IC50 (Mino cells): < 1000 nM | IC50 (JeKo-1 cells): < 1000 nM | DC50 (BTK): 10 to 50 nM | Dmax (BTK): > 90%

Nc1ncnc2c1c(-c1ccc(Oc3ccccc3)cc1)nn2C1CCN(C(=O)NCCN2CCN(c3ccc4c(c3)CN(C3CCC(=O)NC3=O)C4=O)CC2)CC1 (stereo not shown) [Compound 521, 4-(4-amino-3-(4-phenoxyphenyl)-1H-pyrazolo[3,4-d]pyrimidin-1-yl)-N-(2-(4-(2-(2,6-dioxopiperidin-3-yl)-1-oxoisoindolin-5-yl)piperazin-1-yl)ethyl)piperidine-1-carboxamide]
IC50 (Mino cells): < 1000 nM | IC50 (JeKo-1 cells): < 1000 nM | DC50 (BTK): < 10 nM | Dmax (BTK): > 90%

Nc1ncnc2c1c(-c1ccc(Oc3ccccc3)cc1)nn2C1CCC(C(=O)NCCN2CCN(c3ccc4c(c3)C(=O)N(C3CCC(=O)NC3=O)C4=O)CC2)CC1 (stereo not shown) [Compound 522, 4-(4-amino-3-(4-phenoxyphenyl)-1H-pyrazolo[3,4-d]pyrimidin-1-yl)-N-(2-(4-(2-(2,6-dioxopiperidin-3-yl)-1,3-dioxoisoindolin-5-yl)piperazin-1-yl)ethyl)cyclohexane-1-carboxamide]
IC50 (Mino cells): < 1000 nM | IC50 (JeKo-1 cells): < 1000 nM | DC50 (BTK): < 10 nM | Dmax (BTK): > 90%

Nc1ncnc2c1c(-c1ccc(Oc3ccccc3)cc1)nn2C1CCC(C(=O)NCCN2CCN(c3ccc4c(c3)CN(C3CCC(=O)NC3=O)C4=O)CC2)CC1 (stereo not shown) [Compound 523, 4-(4-amino-3-(4-phenoxyphenyl)-1H-pyrazolo[3,4-d]pyrimidin-1-yl)-N-(2-(4-(2-(2,6-dioxopiperidin-3-yl)-1-oxoisoindolin-5-yl)piperazin-1-yl)ethyl)cyclohexane-1-carboxamide]
IC50 (Mino cells): < 1000 nM | IC50 (JeKo-1 cells): < 1000 nM | DC50 (BTK): < 10 nM | Dmax (BTK): > 90%

Nc1ncnc2c1c(-c1ccc(Oc3ccccc3)cc1)nn2[C@@H]1CCCN(C(=O)NCCN2CCN(c3ccc4c(c3)C(=O)N(C3CCC(=O)NC3=O)C4=O)CC2)C1 (stereo partly drawn) [Compound 524, (3R)-3-(4-amino-3-(4-phenoxyphenyl)-1H-pyrazolo[3,4-d]pyrimidin-1-yl)-N-(2-(4-(2-(2,6-dioxopiperidin-3-yl)-1,3-dioxoisoindolin-5-yl)piperazin-1-yl)ethyl)piperidine-1-carboxamide]
IC50 (Mino cells): < 1000 nM | IC50 (JeKo-1 cells): 1000 to 10000 nM | DC50 (BTK): < 10 nM | Dmax (BTK): > 90%

Nc1ncnc2c1c(-c1ccc(Oc3ccccc3)cc1)nn2[C@@H]1CCCN(C(=O)CCCN2CCN(c3ccc4c(c3)C(=O)N(C3CCC(=O)NC3=O)C4=O)CC2)C1 (stereo partly drawn) [Compound 525, 5-(4-(4-((R)-3-(4-amino-3-(4-phenoxyphenyl)-1H-pyrazolo[3,4-d]pyrimidin-1-yl)piperidin-1-yl)-4-oxobutyl)piperazin-1-yl)-2-(2,6-dioxopiperidin-3-yl)isoindoline-1,3-dione]
IC50 (Mino cells): 1000 to 10000 nM | IC50 (JeKo-1 cells): < 1000 nM | DC50 (BTK): < 10 nM | Dmax (BTK): > 90%

Nc1ncnc2c1c(-c1ccc(Oc3ccccc3)cc1)nn2[C@@H]1CCCN(CCNC(=O)N2CCN(c3ccc4c(c3)C(=O)N(C3CCC(=O)NC3=O)C4=O)CC2)C1 (stereo partly drawn) [Compound 526, N-(2-((R)-3-(4-amino-3-(4-phenoxyphenyl)-1H-pyrazolo[3,4-d]pyrimidin-1-yl)piperidin-1-yl)ethyl)-4-(2-(2,6-dioxopiperidin-3-yl)-1,3-dioxoisoindolin-5-yl)piperazine-1-carboxamide]
IC50 (Mino cells): 1000 to 10000 nM | IC50 (JeKo-1 cells): 1000 to 10000 nM | DC50 (BTK): < 10 nM | Dmax (BTK): > 90%

Nc1ncnc2c1c(-c1ccc(Oc3ccccc3)cc1)nn2[C@@H]1CCCN(CCNC(=O)C2CCN(c3ccc4c(c3)C(=O)N(C3CCC(=O)NC3=O)C4=O)CC2)C1 (stereo partly drawn) [Compound 527, N-(2-((R)-3-(4-amino-3-(4-phenoxyphenyl)-1H-pyrazolo[3,4-d]pyrimidin-1-yl)piperidin-1-yl)ethyl)-1-(2-(2,6-dioxopiperidin-3-yl)-1,3-dioxoisoindolin-5-yl)piperidine-4-carboxamide]
IC50 (Mino cells): < 1000 nM | IC50 (JeKo-1 cells): 1000 to 10000 nM | DC50 (BTK): 10 to 50 nM | Dmax (BTK): > 75%

Nc1ncnc2c1c(-c1ccc(Oc3ccccc3)cc1)nn2[C@@H]1CCCN(C2CCN(CC3CCN(c4ccc(N5CCC(=O)NC5=O)cc4)CC3)CC2)C1 [Compound 528, (R)-1-(4-(4-((3-(4-amino-3-(4-phenoxyphenyl)-1H-pyrazolo[3,4-d]pyrimidin-1-yl)-[1,4′-bipiperidin]-1′-yl)methyl)piperidin-1-yl)phenyl)dihydropyrimidine-2,4(1H,3H)-dione]
IC50 (Mino cells): 1000 to 10000 nM | IC50 (JeKo-1 cells): 1000 to 10000 nM | DC50 (BTK): 10 to 50 nM | Dmax (BTK): > 75%

Nc1ncnc2c1c(-c1ccc(Oc3ccccc3)cc1)nn2[C@@H]1CCCN(CC2CCN(c3ccc(N4CCC(=O)NC4=O)cc3)CC2)C1 [Compound 529, (R)-1-(4-(4-((3-(4-amino-3-(4-phenoxyphenyl)-1H-pyrazolo[3,4-d]pyrimidin-1-yl)piperidin-1-yl)methyl)piperidin-1-yl)phenyl)dihydropyrimidine-2,4(1H,3H)-dione]
IC50 (Mino cells): > 10000 nM | IC50 (JeKo-1 cells): > 10000 nM | DC50 (BTK): 10 to 50 nM | Dmax (BTK): > 50%

Nc1ncnc2c1c(-c1ccc(Oc3ccccc3)cc1)nn2C1CCN(CC2CC(N3CCN(c4ccc5c(c4)C(=O)N(C4CCC(=O)NC4=O)C5=O)CC3)C2)CC1 (stereo not shown) [Compound 530, 5-(4-(3-((4-(4-amino-3-(4-phenoxyphenyl)-1H-pyrazolo[3,4-d]pyrimidin-1-yl)piperidin-1-yl)methyl)cyclobutyl)piperazin-1-yl)-2-(2,6-dioxopiperidin-3-yl)isoindoline-1,3-dione]
IC50 (Mino cells): < 1000 nM | IC50 (JeKo-1 cells): < 1000 nM | DC50 (BTK): < 10 nM | Dmax (BTK): > 90%

Nc1ncnc2c1c(-c1ccc(Oc3ccccc3)cc1)nn2C1CCN(CC2CC(N3CCN(c4ccc5c(c4)CN(C4CCC(=O)NC4=O)C5=O)CC3)C2)CC1 (stereo not shown) [Compound 531, 3-(5-(4-(3-((4-(4-amino-3-(4-phenoxyphenyl)-1H-pyrazolo[3,4-d]pyrimidin-1-yl)piperidin-1-yl)methyl)cyclobutyl)piperazin-1-yl)-1-oxoisoindolin-2-yl)piperidine-2,6-dione]
IC50 (Mino cells): < 1000 nM | IC50 (JeKo-1 cells): < 1000 nM | DC50 (BTK): < 10 nM | Dmax (BTK): > 90%

Nc1ncnc2c1c(-c1ccc(Oc3ccccc3)cc1)nn2C1CCC(CN2CC(N3CCN(c4ccc5c(c4)C(=O)N(C4CCC(=O)NC4=O)C5=O)CC3)C2)CC1 (stereo not shown) [Compound 532, 5-(4-(1-((4-(4-amino-3-(4-phenoxyphenyl)-1H-pyrazolo[3,4-d]pyrimidin-1-yl)cyclohexyl)methyl)azetidin-3-yl)piperazin-1-yl)-2-(2,6-dioxopiperidin-3-yl)isoindoline-1,3-dione]
IC50 (Mino cells): < 1000 nM | IC50 (JeKo-1 cells): < 1000 nM | DC50 (BTK): < 10 nM | Dmax (BTK): > 90%

Nc1ncnc2c1c(-c1ccc(Oc3ccccc3)cc1)nn2C1CCC(CN2CC(N3CCN(c4ccc5c(c4)CN(C4CCC(=O)NC4=O)C5=O)CC3)C2)CC1 (stereo not shown) [Compound 533, 3-(5-(4-(1-((4-(4-amino-3-(4-phenoxyphenyl)-1H-pyrazolo[3,4-d]pyrimidin-1-yl)cyclohexyl)methyl)azetidin-3-yl)piperazin-1-yl)-1-oxoisoindolin-2-yl)piperidine-2,6-dione]
IC50 (Mino cells): < 1000 nM | IC50 (JeKo-1 cells): < 1000 nM | DC50 (BTK): < 10 nM | Dmax (BTK): > 90%

Nc1ncnc2c1c(-c1ccc(Oc3ccccc3)cc1)nn2C1CCN(C2CCN(CCCC#Cc3ccc(N4CCC(=O)NC4=O)cc3)CC2)CC1 [Compound 534, 1-(4-(5-(4-(4-amino-3-(4-phenoxyphenyl)-1H-pyrazolo[3,4-d]pyrimidin-1-yl)-[1,4′-bipiperidin]-1′-yl)pent-1-yn-1-yl)phenyl)dihydropyrimidine-2,4(1H,3H)-dione]
IC50 (Mino cells): > 10000 nM | IC50 (JeKo-1 cells): > 10000 nM | DC50 (BTK): > 50 nM | Dmax (BTK): > 50%

Nc1ncnc2c1c(-c1ccc(Oc3ccccc3)cc1)nn2C1CCN(C2CCN(CCCCC#Cc3ccc(N4CCC(=O)NC4=O)cc3)CC2)CC1 [Compound 535, 1-(4-(6-(4-(4-amino-3-(4-phenoxyphenyl)-1H-pyrazolo[3,4-d]pyrimidin-1-yl)-[1,4′-bipiperidin]-1′-yl)hex-1-yn-1-yl)phenyl)dihydropyrimidine-2,4(1H,3H)-dione]
IC50 (Mino cells): > 10000 nM | IC50 (JeKo-1 cells): > 10000 nM | DC50 (BTK): > 50 nM | Dmax (BTK): > 50%
